From publication PMC10724293, “New ruthenium-xanthoxylin complex eliminates colorectal cancer stem cells by targeting the heat shock protein 90 chaperone” (Cell Death & Disease, 2023)

Columns and labels:
[1] = system: MRC-5; experiment: Alamar blue cytotoxicity assay, noncancerous cells; type: cell-based, human; settings: MRC-5 noncancerous cells, 72 h, read-out: IC50 and 95%CI
Protocol: (§1) The Alamar blue assay was used to determine cell viability as previously described. Cells were seeded into 96-well plates at a density of 7 × 10^3 cells per well for adherent cells or 3 × 10^4 cells per well for suspended cells. The drug was added to each well after 24 h of incubation for adherent cells or immediately for suspended cells and incubated for an additional 72 h. […] Each well received 100 µM resazurin (Sigma-Aldrich Co. St. Louis, MO, United States) four (for cell lines) or 24 (for primary culture) h before the end of the incubation. A SpectraMax 190 Microplate Reader (Molecular Devices, Sunnyvale, CA, USA) was used to measure absorbance at 570 and 600 nm.

[2] = system: PBMC; experiment: Alamar blue cytotoxicity assay, noncancerous cells; type: cell-based, human; settings: 72 h, read-out: IC50 and 95%CI
Protocol: as §1

[3] = system: BJ; experiment: Alamar blue cytotoxicity assay, noncancerous cells; type: cell-based, human; settings: 72 h, read-out: IC50 and 95%CI
Protocol: as §1

[4] = system: HepG2 cells; settings: C. B-17 SCID mice engrafted with HepG2 cells; cited from earlier work
[5] = system: HCT116 cells; experiment: Colony-forming assay; type: cell-based, human; settings: 24, 48, 72 h treatment, 14 days culture
Protocol: To test clonogenic ability, 1000 cells were seeded in 6-well plates with 6 ml of complete medium and incubated with the drug for 24, 48, and 72 h. The medium was then changed to drug-free fresh medium and cultured for a total of 14 days. The cells were then fixed in methanol and stained with 0.5% crystal violet. The number of colonies with more than 50 cells was counted using an optical microscope (Nikon, TS100).

[6] = system: HCT116 cells; experiment: CRC tumor growth xenograft model; type: in vivo, C. B-17 SCID mice; settings: 2 mg/kg i.p. once a day for 2 weeks; control 0.81 ± 0.09 g
Protocol: HCT116 cells (10^7 cells/500 μl) were inoculated subcutaneously into the left front armpit of mice, as previously reported. The animals were then treated intraperitoneally (200 μl/animal) once a day for 2 weeks. […] The animals were euthanized with an anesthetic overdose (thiopental, 100 mg/kg) 1 day after treatment ended, and tumors were excised, weighed, and processed for histological analysis. The inhibition ratio (percent) was calculated as follows: inhibition ratio (percent) = [(A − B)/A] × 100, where A is the average tumor weight of the negative control and B is the treated group.

[7] = system: BAD KO SV40 MEF; experiment: Alamar blue survival curves and cell death; type: cell-based, mouse; settings: BAD KO SV40 MEF vs WT SV40 MEF; 10 μM, 48 h
Protocol: as §1
For apoptosis detection or functional assays, cell viability was quantified using annexin V-FITC/PI (FITC Annexin V Apoptosis Detection Kit I, BD Biosciences, San Jose, CA, USA) or YO-PRO-1/PI (Sigma-Aldrich Co.). The following inhibitors were used: chloroquine (autophagy inhibitor, Ipca Laboratories, Mumbai, MH, India); 3-methyladenine (autophagy inhibitor, Sigma-Aldrich Co.); and lithium chloride (Wnt activator, Sigma-Aldrich Co.).

[8] = system: HCT116 cells; experiment: Protein expression levels by flow cytometry; type: cell-based, human; settings: 10 μM, 24 h
Protocol: Flow cytometry was used to measure protein expression levels using primary antibodies conjugated with specific fluorochromes, as detailed in Table S5. For intracellular protein staining, cells were collected and resuspended in 0.5–1 ml of 4% formaldehyde for 10 min at 37 °C. The tubes were then kept on ice for 1 min and permeabilized for 30 min on ice by slowly adding ice-cold 100% methanol to prechilled cells while gently vortexing to a final concentration of 90% methanol. After washing with incubation buffer (0.5% bovine serum albumin in PBS), antibodies were added and incubated at room temperature for 1 h. Finally, the cells were washed with PBS, and the fluorescence of the cells was measured using flow cytometry.
(§2) For cell surface protein staining, cells were washed with incubation buffer (0.5% bovine serum albumin in PBS), and then antibodies were added and incubated for 1 h at room temperature. The cells were then washed with PBS, and cell fluorescence was measured using flow cytometry. To select viable cells for quantification of CD133-positive cells, YO-PRO-1 (Sigma-Aldrich Co.) was used.
For all flow cytometry analyses, cell fluorescence was measured with a BD LSRFortessa cytometer and analyzed by BD FACSDiva Software (BD Biosciences) and FlowJo Software 10 (FlowJo LLC; Ashland, OR, USA). At least 10,000 events were evaluated per sample for intracellular staining, and at least 30,000 events were acquired per sample for cell surface protein staining. FSC-A versus FCS-H and SCC-A versus SCC-H were used to remove the doublets. The analysis excluded cellular debris.

[9] = system: CR02 (colorectal carcinoma); experiment: Alamar blue viability of primary cancer cells; type: cell-based, human; settings: primary CRC (second listed); 25 μg/ml (RXC 31.3 μM, DOX 46 μM); 96 h
Protocol: as §1, with “nm. […]” for “nm.”

[10] = system: HepG2 human hepatocellular carcinoma cells; settings: HepG2 in monolayers or 3D multicellular cancer spheroids; cited from earlier work
[11] = system: HCT116 cells; experiment: CD133 expression by flow cytometry; type: cell-based, human; settings: 10 μM, 24 h; control 32.0%
Protocol: as §2

[12] = system: 4T1; experiment: Alamar blue cytotoxicity assay; type: cell-based, mouse; settings: 72 h, read-out: IC50 and 95%CI
Protocol: as §1

[13] = system: B16-F10; experiment: Alamar blue cytotoxicity assay; type: cell-based, mouse; settings: 72 h, read-out: IC50 and 95%CI
Protocol: as §1

Substance cis-[Ru(phen)2(xant)](PF6) [RXC] has an IC50 [1] of 21.4 µM, an IC50 [2] of 4.93 µM and an IC50 [3] of 0.76 µM. For the same substance, the tumor growth [4] was “suppressed tumor growth”, the clonogenic survival [5] was “inhibit the clonogenic survival” and the “mean weight of tumors” value [6] was 0.6 ± 0.05 g. The “role of the proapoptotic protein BAD in induced cell death” value [7] was “BAD-independent cell death”, the E-cadherin expression [8] was “increased” and the LC3B expression [8] was “increased”. For the same substance, the “expression level of 4EBP1 (pT36/pT45)” value [8] was “decreased”, the “expression level of Akt1” value [8] was “decreased” and the “expression level of Akt (pS473)” value [8] was “decreased”. For the same substance, the “expression level of Akt (pT308)” value [8] was “no change”, the “expression level of GSK-3β (pS9)” value [8] was “decreased” and the “expression level of NF-κB p65 (pS529)” value [8] was “decreased”. The “expression level of PI3K p85/p55 (pT458/pT199)” value [8] was “no change”, the “expression level of S6 (pS235/pS236)” value [8] was “no change” and the “expression level of elF4E (pS209)” value [8] was “no change”. For the same substance, the “expression level of mTOR (pS2448)” value [8] was “decreased”, the “expression of Hsp90 protein” value [8] was “decreased” and the “levels of PARP cleavage (Asp214)” value [8] was “increased”. The p62/SQSTM1 expression [8] was “decreasing”, the vimentin expression [8] was “decreased” and the reduced cell viability [9] was 37.4%. The cytotoxicity [10] was “potent cytotoxicity”, the “HCT116 CD133-positive cells” value [11] was 10.1% and the IC50 [12] was 9.1 µM. It also gave an IC50 [13] of 2.58 µM.
